13 compounds from ChEMBL document CHEMBL5303573, “Mapping human microbiome drug metabolism by gut bacteria and their genes” (Nature, 2019) can be followed below.

Conditions in all cases: 2 µM
The nature of data set [1]: The drug is tested on Bacteroides fragilis strain: T(B)9 for biotransformation. The drug concentrations were measured before and after a 12-h incubation by liquid-chromatography-coupled mass spectrometry (LC–MS).
For data set [2], the target named is T1, Acyltransferase (Bacteroides thetaiotaomicron, UniProt Q8A575).
T1 sequence (Q8A575 whole entry): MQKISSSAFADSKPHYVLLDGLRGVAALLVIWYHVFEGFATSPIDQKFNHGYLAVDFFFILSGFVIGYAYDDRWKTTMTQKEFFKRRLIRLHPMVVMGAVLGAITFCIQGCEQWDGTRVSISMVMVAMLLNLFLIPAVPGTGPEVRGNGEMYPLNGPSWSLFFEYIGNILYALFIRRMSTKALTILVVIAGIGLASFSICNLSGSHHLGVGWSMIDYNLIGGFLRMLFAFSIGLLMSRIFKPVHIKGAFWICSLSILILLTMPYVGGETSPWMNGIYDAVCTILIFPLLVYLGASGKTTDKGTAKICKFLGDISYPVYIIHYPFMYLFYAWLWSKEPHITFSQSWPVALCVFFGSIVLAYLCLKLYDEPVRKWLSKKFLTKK
Put plainly: (§1) The drug is tested on Bacteroides thetaiotaomicron strain: VPI-5482 for biotransformation. The drug concentrations were measured before and after a 12-h incubation by liquid-chromatography-coupled mass spectrometry (LC–MS). The format is ADME. Also on record: dose 2 uM.

The target of data set [3] is T2, Acylhydrolase (Bacteroides thetaiotaomicron, UniProt Q8AA96).
T2 sequence (Q8AA96 whole entry): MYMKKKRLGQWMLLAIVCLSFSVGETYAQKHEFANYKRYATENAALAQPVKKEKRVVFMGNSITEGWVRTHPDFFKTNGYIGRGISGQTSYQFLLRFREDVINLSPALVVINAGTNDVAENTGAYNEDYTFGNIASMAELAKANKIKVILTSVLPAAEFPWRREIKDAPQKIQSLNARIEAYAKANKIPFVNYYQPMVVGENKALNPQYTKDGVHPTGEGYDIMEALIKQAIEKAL
The data set is described as §1. The format is ADME. Further details: dose 2 uM.

In data set [4] the target is T3, Lipolytic enzyme, G-D-S-L family (Bacteroides thetaiotaomicron, UniProt Q8A0E6).
T3 sequence (Q8A0E6 whole entry): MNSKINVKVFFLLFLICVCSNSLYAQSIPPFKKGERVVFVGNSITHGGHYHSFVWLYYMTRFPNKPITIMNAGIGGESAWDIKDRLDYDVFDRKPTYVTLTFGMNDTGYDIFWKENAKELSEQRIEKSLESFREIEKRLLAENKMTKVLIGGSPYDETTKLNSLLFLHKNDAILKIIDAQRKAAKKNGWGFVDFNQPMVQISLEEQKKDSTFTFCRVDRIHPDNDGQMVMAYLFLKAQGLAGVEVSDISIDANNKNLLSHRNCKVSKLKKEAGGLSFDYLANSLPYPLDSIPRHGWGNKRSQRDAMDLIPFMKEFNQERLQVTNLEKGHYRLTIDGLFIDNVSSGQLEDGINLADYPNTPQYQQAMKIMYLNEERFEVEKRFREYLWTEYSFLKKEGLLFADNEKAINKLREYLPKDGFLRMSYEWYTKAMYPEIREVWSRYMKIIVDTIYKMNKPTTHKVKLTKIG
Described as §1. The format is ADME. Further details: dose 2 uM.

The target in data set [5] is T4, Nitroreductase-like protein (Bacteroides thetaiotaomicron, UniProt Q8AB93).
T4 sequence (Q8AB93 whole entry): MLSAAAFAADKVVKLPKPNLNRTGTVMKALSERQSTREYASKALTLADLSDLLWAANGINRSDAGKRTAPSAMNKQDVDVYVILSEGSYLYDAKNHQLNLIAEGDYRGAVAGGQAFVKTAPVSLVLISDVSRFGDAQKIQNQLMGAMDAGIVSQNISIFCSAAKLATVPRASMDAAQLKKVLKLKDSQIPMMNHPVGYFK
Described as §1. The format is ADME. Also on record: dose 2 uM.

Data set [6] has as its target T5, GDSL-like protein (Collinsella aerofaciens, UniProt A4E7D0).
T5 sequence (A4E7D0 whole entry): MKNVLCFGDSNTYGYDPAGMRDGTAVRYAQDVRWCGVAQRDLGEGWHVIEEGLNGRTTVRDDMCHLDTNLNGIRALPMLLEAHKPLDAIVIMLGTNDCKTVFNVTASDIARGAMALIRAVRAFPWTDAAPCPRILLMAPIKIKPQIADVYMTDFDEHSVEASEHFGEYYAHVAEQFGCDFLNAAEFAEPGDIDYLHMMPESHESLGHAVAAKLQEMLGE
Put plainly: (§2) The drug is tested on Collinsella aerofaciens strain: ATCC25986 for biotransformation. The drug concentrations were measured before and after a 12-h incubation by liquid-chromatography-coupled mass spectrometry (LC–MS). The format is ADME. Further details: dose 2 uM.

In data set [7] the target is T6, Diguanylate cyclase (Collinsella aerofaciens, UniProt A4EB91).
T6 sequence (A4EB91 whole entry): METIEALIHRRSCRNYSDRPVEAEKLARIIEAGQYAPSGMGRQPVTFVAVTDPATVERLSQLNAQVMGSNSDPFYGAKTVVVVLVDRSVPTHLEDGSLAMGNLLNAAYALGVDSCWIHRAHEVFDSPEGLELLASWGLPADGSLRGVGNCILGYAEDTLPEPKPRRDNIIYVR
Described as §2. The format is ADME. Further details: dose 2 uM.

The target of data set [8] is T7, GDSL-like protein (Collinsella aerofaciens, UniProt A4E8S4).
T7 sequence (A4E8S4 whole entry): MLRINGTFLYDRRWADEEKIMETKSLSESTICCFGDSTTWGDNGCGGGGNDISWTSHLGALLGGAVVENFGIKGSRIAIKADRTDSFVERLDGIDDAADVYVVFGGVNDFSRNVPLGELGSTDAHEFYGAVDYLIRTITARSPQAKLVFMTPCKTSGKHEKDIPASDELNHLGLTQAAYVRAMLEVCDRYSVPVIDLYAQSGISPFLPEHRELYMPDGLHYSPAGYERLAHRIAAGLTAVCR
The description is as §2. The format is ADME. Also on record: dose 2 uM.

Data set [9] has as its target T8, Pyridine nucleotide-disulfide oxidoreductase (Collinsella aerofaciens, UniProt A4EBM5).
T8 sequence (A4EBM5 whole entry): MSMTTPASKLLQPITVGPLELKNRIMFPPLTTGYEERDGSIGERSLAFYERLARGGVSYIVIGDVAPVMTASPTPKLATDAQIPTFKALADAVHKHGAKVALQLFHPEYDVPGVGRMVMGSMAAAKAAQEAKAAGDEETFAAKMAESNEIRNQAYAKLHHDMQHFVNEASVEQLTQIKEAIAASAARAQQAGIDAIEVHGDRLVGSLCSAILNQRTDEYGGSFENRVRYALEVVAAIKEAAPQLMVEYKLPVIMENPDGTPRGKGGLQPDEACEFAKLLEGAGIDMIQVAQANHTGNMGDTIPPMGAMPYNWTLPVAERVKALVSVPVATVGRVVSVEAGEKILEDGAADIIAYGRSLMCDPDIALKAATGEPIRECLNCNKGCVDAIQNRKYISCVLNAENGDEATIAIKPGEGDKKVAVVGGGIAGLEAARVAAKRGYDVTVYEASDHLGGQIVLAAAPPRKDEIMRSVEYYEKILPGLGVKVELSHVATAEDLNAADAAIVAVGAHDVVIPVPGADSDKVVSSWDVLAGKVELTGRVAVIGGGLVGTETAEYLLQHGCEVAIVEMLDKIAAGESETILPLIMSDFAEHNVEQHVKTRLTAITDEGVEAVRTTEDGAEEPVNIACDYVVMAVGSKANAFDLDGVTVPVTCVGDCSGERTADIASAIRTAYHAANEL
The description is as §2. The format is ADME. Also on record: dose 2 uM.

Turning to `CN1[C@@H]2CC[C@H]1C[C@@H](OC(=O)C(CO)c1ccccc1)C2` (stereo not given in full) [ATROPINE], the “Bacterial Biotransformation” value in data set [1] was “Compound NOT metabolized”.
As for `CC(=O)OCC(=O)[C@@]1(OC(C)=O)[C@@H](C)C[C@H]2[C@@H]3C[C@H](F)C4=CC(=O)C=C[C@]4(C)[C@@]3(F)[C@@H](O)C[C@@]21C` [DIFLORASONE DIACETATE], the “Bacterial Biotransformation” value is “Compound NOT metabolized” in data set [2]; “Compound metabolized” in data set [3]; “Compound NOT metabolized” in data set [4]; “Compound NOT metabolized” in data set [5]; “Compound NOT metabolized” in data set [6]; “Compound NOT metabolized” in data set [7]. The “Bacterial Biotransformation” value in data set [8] is “Compound metabolized”; in data set [9], “Compound NOT metabolized”.
With `COc1ccc([C@@H]2Sc3ccccc3N(CCN(C)C)C(=O)[C@@H]2OC(C)=O)cc1` [DILTIAZEM], the “Bacterial Biotransformation” value in [2], in data set [3], in data set [4], in data set [5], in [6] and in [7] was “Compound NOT metabolized” throughout. Moreover, the “Bacterial Biotransformation” value in data set [8] and in data set [9] was “Compound NOT metabolized” each time.
`CNCC[C@H](Oc1cccc2ccccc12)c1cccs1` [DULOXETINE]: the “Bacterial Biotransformation” value in data set [1] is recorded as “Compound metabolized”.
For `CC(=O)OCC(CCn1cnc2cnc(N)nc21)COC(C)=O` [FAMCICLOVIR], the “Bacterial Biotransformation” value is recorded as “Compound NOT metabolized” in [2]; “Compound metabolized” in [3]; “Compound NOT metabolized” in data set [4]; “Compound NOT metabolized” in data set [5]; “Compound NOT metabolized” in [6]; “Compound NOT metabolized” in data set [7]. In addition, the “Bacterial Biotransformation” value in data set [8] was “Compound metabolized”; in data set [9] it was “Compound NOT metabolized”.
`CC(C)(C(=O)O)c1ccc(C(O)CCCN2CCC(C(O)(c3ccccc3)c3ccccc3)CC2)cc1` (stereo not given) [FEXOFENADINE]: in [1], the “Bacterial Biotransformation” value was “Compound NOT metabolized”.
With `Cc1ccc(NC(=O)c2ccc(CN3CCN(C)CC3)cc2)cc1Nc1nccc(-c2cccnc2)n1` [IMATINIB], the “Bacterial Biotransformation” value in [1] is listed as “Compound NOT metabolized”.
For `C#C[C@]1(O)CC[C@H]2[C@@H]3CCC4=CC(=O)CC[C@@H]4[C@H]3CC[C@@]21CC` [LEVONORGESTREL], the “Bacterial Biotransformation” value in [2], in data set [3], in data set [4], in [5], in data set [6] and in [7] was “Compound NOT metabolized” in each case. The “Bacterial Biotransformation” value in data set [8] and in data set [9] was “Compound NOT metabolized” in each case.
On to `COC(=O)Nc1nc2ccc(C(=O)c3ccccc3)cc2[nH]1` [MEBENDAZOLE], for which the “Bacterial Biotransformation” value in data set [1] is “Compound metabolized”.
`COc1ccc2cc([C@H](C)C(=O)O)ccc2c1` [NAPROXEN]: in data set [1], the “Bacterial Biotransformation” value is “Compound NOT metabolized”.
Turning to `C#C[C@]1(OC(C)=O)CC[C@H]2[C@@H]3CCC4=CC(=O)CC[C@@H]4[C@H]3CC[C@@]21C` [NORETHINDRONE ACETATE], the “Bacterial Biotransformation” value in [2], in [3], in data set [4], in [5], in [6] and in data set [7] was “Compound NOT metabolized” throughout. In addition, the “Bacterial Biotransformation” value in [8] and in data set [9] was “Compound NOT metabolized” each time.
For the compound `C#C[C@]1(OC(C)=O)CC[C@H]2[C@@H]3CCC4=C/C(=N/O)CC[C@@H]4[C@H]3CC[C@@]21CC` [NORGESTIMATE], the “Bacterial Biotransformation” value in data set [1] was “Compound NOT metabolized”.
With `N#Cc1ccc2c(c1)N(CCCN1CCC(O)CC1)c1ccccc1S2` [PERICIAZINE], the “Bacterial Biotransformation” value was “Compound metabolized” in data set [2]; “Compound NOT metabolized” in data set [3]; “Compound NOT metabolized” in data set [4]; “Compound NOT metabolized” in data set [5]; “Compound NOT metabolized” in [6]; “Compound NOT metabolized” in [7]. Also, the “Bacterial Biotransformation” value in data set [8] and in [9] was “Compound NOT metabolized” throughout.
